# Measured values: ChEMBL document CHEMBL5113408, “Design, synthesis and antitumour activity of novel 5(6)-amino-benzimidazolequinones containing a fused morpholine” (Eur J Med Chem, 2022)
# Activity calls are given as the source filed them. The rule behind the calls is not given here.
# Columns and labels:
# [1] = system: MGC-803; test: Induction of mitochondrial membrane depolarization in human MGC-803 cells incubated for 48 hrs by flow cytometry analysis; format: functional, cell-based; details: dose 1-4 µM, DDE = dose-dependent effect
# [2] = system: MGC-803; test: Induction of ROS generation in human MGC-803 cells at 1 to 4 uM incubated for 24 hrs by flow cytometry analysis; format: functional, cell-based; details: dose 1-4 µM
# [3] = system: HGC-27; test: Induction of DNA damage in human HGC-27 cells assessed as increase in p-ATM generation incubated for 48 hrs by Western blot analysis; format: functional, cell-based; details: DDE = dose-dependent effect
# [4] = system: MGC-803; test: Activation of ROS/JNK signalling in human MGC-803 cells assessed as increase in p-MKK4 level by Western blot analysis; format: cell-based; details: filed as activator, dose 1-4 µM, DDE = dose-dependent effect
# [5] = system: MGC-803; test: Induction of DNA damage in human MGC-803 cells assessed as increase in gamma-H2AX generation incubated for 24 hrs by immunofluorescence analysis; format: functional, cell-based
# [6] = system: MGC-803; test: Induction of cell cycle arrest in human MGC-803 cells assessed as decrease in cyclin-B1 level at 1 to 4 uM by Western blot analysis; format: functional, cell-based; details: dose 1-4 µM
# [7] = system: ECa-109 cell line; test: Antiproliferative activity against human EC109 cells assessed as inhibition of cell growth by SRB assay; format: functional, cell-based
# [8] = system: HGC-27; test: Induction of apoptosis in human HGC-27 cells incubated for 48 hrs by Annexin-V FITC staining based flow cytometry analysis; format: functional, cell-based; details: dose 1-4 µM, DDE = dose-dependent effect
# [9] = system: MGC-803; test: Induction of cell cycle arrest in human MGC-803 cells assessed as accumulation of cells at G2/M phase at 2 uM incubated for 36 hrs by PI staining based flow cytometry analysis (reference value: 20.5%); format: functional
# [10] = system: HGC-27; test: Induction of apoptosis in human HGC-27 cells incubated for 48 hrs by Annexin V-FITC and PI staining based flow cytometry analysis; format: functional
# [11] = system: HGC-27; test: Induction of cell cycle arrest in human HGC-27 cells assessed as accumulation of cells at G1 phase at 1 uM incubated for 36 hrs by PI staining based flow cytometry analysis (reference value: 49.6%); format: functional
# [12] = system: HeLa; test: Antiproliferative activity against human HeLa cells assessed as inhibition of cell growth by SRB assay; format: functional, cell-based
# [13] = system: MGC-803; test: Induction of apoptosis in human MGC-803 cells assessed as increase in bax/bcl-2 expression level at 1 to 4 uM incubated for 48 hrs by Western blot analysis; format: functional, cell-based; details: dose 1-4 µM
# [14] = system: MGC-803; test: Induction of apoptosis in human MGC-803 cells assessed as increase in cleaved caspase 7 protein expression level at 1 to 4 uM incubated for 48 hrs by Western blot analysis; format: functional, cell-based; details: dose 1-4 µM
# [15] = system: MGC-803; test: Induction of cell cycle arrest in human MGC-803 cells assessed as accumulation of cells at G2/M phase at 1 uM incubated for 36 hrs by PI staining based flow cytometry analysis (reference value: 20.5%); format: functional
# [16] = system: MGC-803; test: Antitumor activity against human MGC-803 cells xenografted with BALB/c mouse assessed as vacuolated cytoplasm at 10 to 20 mg/kg, ip administered once every two days; format: functional, organism-based; details: dose 10-20 mg/kg
# [17] = system: HGC-27; test: Induction of cell cycle arrest in human HGC-27 cells assessed as decrease in cyclin-B1 level at 1 to 4 uM by Western blot analysis; format: functional, cell-based; details: dose 1-4 µM
# [18] = Toxicity in BALB/c mouse xenografted with human MGC-803 cells assessed as effect on uric acid level at 10 to 20 mg/kg, ip administered once every two days; format: organism-based; details: in vivo, dose 10-20 mg/kg
# [19] = system: HGC-27; test: Induction of cell cycle arrest in human HGC-27 cells assessed as accumulation of cells at G1 phase at 2 uM incubated for 36 hrs by PI staining based flow cytometry analysis (reference value: 49.6%); format: functional
# [20] = system: MGC-803; test: Antitumor activity against human MGC-803 cells xenografted with BALB/c mouse assessed as reduction in tumor growth at 10 to 20 mg/kg, ip administered once every two days; format: functional, organism-based; details: dose 10-20 mg/kg
# [21] = system: MGC-803; test: Induction of cell cycle arrest in human MGC-803 cells assessed as accumulation of cells at G2/M phase at 4 uM incubated for 36 hrs by PI staining based flow cytometry analysis (reference value: 20.5%); format: functional
# [22] = system: HGC-27; test: Induction of cell cycle arrest in human HGC-27 cells assessed as accumulation of cells at S phase at 1 uM incubated for 36 hrs by PI staining based flow cytometry analysis (reference value: 8.87%); format: functional
# [23] = system: HGC-27; test: Activation of ROS/JNK signalling in human HGC-27 cells assessed as increase in p-ASK1 level by Western blot analysis; format: cell-based; details: filed as activator, dose 1-4 µM, DDE = dose-dependent effect
# [24] = system: HGC-27; test: Antiproliferative activity against human HGC-27 cells assessed as inhibition of cell growth at 0.25 to 8 uM by SRB assay; format: functional, cell-based; details: dose 0.25-8 µM, time 24-72 hrs, TDE = time-dependent effect
# [25] = system: MGC-803; test: Induction of apoptosis in human MGC-803 cells assessed as decrease in caspase 9 protein expression level at 1 to 4 uM incubated for 48 hrs by Western blot analysis; format: functional, cell-based; details: dose 1-4 µM
# [26] = Antiproliferative activity against human L02 cells assessed as inhibition of cell growth incubated for 72 hrs by SRB assay; format: toxicity, cell-based
# [27] = system: HGC-27; test: Induction of DNA damage in human HGC-27 cells assessed as increase in gamma-H2AX generation incubated for 24 hrs by immunofluorescence analysis; format: functional, cell-based
# [28] = system: MGC-803; test: Antitumor activity against human MGC-803 cells xenografted with BALB/c mouse assessed as reduction in tumor weight at 10 to 20 mg/kg, ip administered once every two days; format: functional, organism-based; details: dose 10-20 mg/kg
# [29] = system: MGC-803; test: Induction of apoptosis in human MGC-803 cells incubated for 48 hrs by Annexin V-FITC and PI staining based flow cytometry analysis; format: functional
# [30] = system: MGC-803; test: Induction of DNA damage in human MGC-803 cells assessed as increase in p-ATM generation incubated for 48 hrs by Western blot analysis; format: functional, cell-based; details: DDE = dose-dependent effect
# [31] = system: MGC-803; test: Antiproliferative activity against human MGC-803 cells assessed as inhibition of cell growth by SRB assay; format: functional, cell-based
# [32] = system: MGC-803; test: Induction of apoptosis in human MGC-803 cells incubated for 48 hrs by Annexin-V FITC staining based flow cytometry analysis; format: functional, cell-based; details: dose 1-4 µM, DDE = dose-dependent effect
# [33] = system: HGC-27; test: Induction of apoptosis in human HGC-27 cells assessed as increase in cleaved caspase 3 protein expression level at 1 to 4 uM incubated for 48 hrs by Western blot analysis; format: functional, cell-based; details: dose 1-4 µM
# [34] = system: MGC-803; test: Induction of apoptosis in human MGC-803 cells assessed as increase in cleaved caspase 9 protein expression level at 1 to 4 uM incubated for 48 hrs by Western blot analysis; format: functional, cell-based; details: dose 1-4 µM
# [35] = Toxicity in BALB/c mouse xenografted with human MGC-803 cells assessed as effect on ALT level at 10 to 20 mg/kg, ip administered once every two days; format: organism-based; details: in vivo, dose 10-20 mg/kg
# [36] = system: MCF7; test: Antiproliferative activity against human MCF7 cells assessed as inhibition of cell growth by SRB assay; format: functional, cell-based
# [37] = system: MGC-803; test: Induction of cell cycle arrest in human MGC-803 cells assessed as accumulation of cells at S phase at 4 uM incubated for 36 hrs by PI staining based flow cytometry analysis (reference value: 20.5%); format: functional
# [38] = system: HGC-27; test: Antiproliferative activity against human HGC-27 cells assessed as inhibition of cell growth incubated for 72 hrs by SRB assay; format: functional, cell-based; details: HGC-27, 72 h
# [39] = system: HGC-27; test: Induction of apoptosis in human HGC-27 cells assessed as decrease in caspase 9 protein expression level at 1 to 4 uM incubated for 48 hrs by Western blot analysis; format: functional, cell-based; details: dose 1-4 µM
structure (smiles),measurement,setting,value
Cc1ccc(NC2=CC(=O)c3nc4n(c3C2=O)[C@H]2OC[C@@H](O)[C@H]2OC4)cc1C,Activity,[1],Dde
same,Activity,[2],Active
same,Activity,[3],Dde
same,Activity,[4],Dde
same,Activity,[5],Active
same,Activity,[6],Active
same,IC50,[7],2820 nM
same,Activity,[8],Dde
same,Activity,[9],24%
same,Activity,[10],54.5%
same,Activity,[11],49.3%
same,IC50,[12],2690 nM
same,Activity,[13],Active
same,Activity,[14],Active
same,Activity,[15],23.5%
same,Activity,[16],Active
same,Activity,[17],Active
same,Activity,[18],Non-Toxic
same,Activity,[19],33.5%
same,Activity,[20],Active
same,Activity,[21],28.2%
same,Activity,[22],8.8%
same,Activity,[23],Dde
same,Activity,[24],Tde
same,Activity,[25],Active
same,IC50 at 72 h,[26],24.8 µM
same,Activity,[27],Active
same,Activity,[28],Active
same,Activity,[29],55.4%
same,Activity,[30],Dde
same,IC50,[31],860 nM
same,Activity,[32],Dde
same,Activity,[33],Active
same,Activity,[34],Active
same,Activity,[35],Non-Toxic
same,IC50,[36],2080 nM
same,Activity,[37],34.1%
same,IC50,[38],1740 nM
same,Activity,[39],Active
